Reference: article PMC7689096, “Cyclizing Painkillers: Development of Backbone-Cyclic TAPS Analogs” (Frontiers in Chemistry, 2020)

Legend:
[1] = molecular target: T1, δ (DOP, OPRD2) opioid receptor (Mus musculus, UniProt P32300); test: DOP opioid receptor functional agonism in NG-10815 cells; assay type: cell-based, rat; details: At 10^−6 M, percent of control specific agonist response
T1 construct: NG-10815 cells which express significant endogenous levels of δ opioid receptors; host or cells: NG-10815 (NG108-15) mouse N18TG2 neuroblastoma x rat C6-BU-1 glioma hybrid cells
Method: (§1) Peptides were tested for μ (MOP, OPRM1) and δ (DOP, OPRD2) opioid receptor activation functional agonism and antagonism using CHO cells expressing human recombinant μ receptors and NG-10815 cells which express significant endogenous levels of δ opioid receptors. The cultures were incubated for 10 min at 37°C followed by impedance measurements of CHO cells and cAMP was assayed by the HTRF method using NG-10815 cells, according to CEREP standard assay protocols. The respective reference, non-peptide small molecules were tested concurrently with the TAPS analogs. The agonist compounds were: DPDPE (selective agonist of DOP receptor) and DAMGO (high MOP receptor specificity) and the antagonist compounds were: Naltrindole (selective DOP receptor antagonist) and CTOP (MOP receptor antagonist). […] The results are expressed as a percentage of respective control-specific response. […] These findings indicate that TAPS cyclic peptides are MOP selective full agonists. […] The cyclic TAPS peptide had lower activity than the linear parent TAPS peptide (90 ± 5%) – a finding that can be attributed to their restricted conformation relative to the flexible linear peptide conformation.
Evaluation of the Agonist Activity of Compounds at the Rat delta2 Receptor Endogenously Expressed in NG-10815 Cells, Determined by Measuring Their Effects on Impedance Modulation Using the CellKey (CDS) Detection Method
Cells are seeded onto 96-well plate coated with fibronectin at 2 × 10^5 cells/well in HBSS buffer (Invitrogen) + 20 mM HEPES (Invitrogen) with 0.1% BSA and allowed to equilibrate for 60 min at 37°C before the start of the experiment. Plates are placed onto the system and measurements are made at a temperature of 37°C. […] Impedance measurements are monitored for 10 min after ligand addition. The standard reference agonist is DPDPE, which is tested in each experiment at several concentrations to generate a concentration-response curve from which its EC50 value is calculated.
The respective reference, non-peptide small molecules were tested concurrently with the TAPS analogs; Agonist compounds DPDPE ([D-Pen2,D-Pen5]enkephalin), selective agonist of DOP receptor at 2 × 10^−9 M and DAMGO ([D-Ala2, N-MePhe4, Gly-ol] enkephalin), high MOP specificity at 2.5 × 10^−9 M; Antagonist compounds: naltrindole 7-(cyclopropylmethyl)-6,7-dehydro-4,5α-epoxy-3,14-dihydroxy-6,7-2′,3′-indolomorphinan hydrochloride, selective DOP antagonist, 5 × 10^−10 M and CTOP (D-Phe-Cys-Tyr-D-Trp-Orn-Thr-Pen-Thr-NH2), MOP antagonist at 3.4 × 10^−7 M. Depending on the assay volume and solvent tolerance, the stock solutions were diluted to [100×], [333×] or [1,000×] in 100% DMEM solvent, then either added directly or further diluted to [10×] or [5×] in H2O or Hank's balanced salt solution (HBSS) before addition to the assay well (final solvent concentration kept constant). The cultures were incubated for 10 min at 37°C followed by impedance measurements using cellular dielectric spectroscopy of CHO cells and cAMP was assayed by homogeneous time resolved fluorescence (HTRF) method using NG-10815 cells, according to CEREP standard assay protocols (https://euroscreenfast.com/assays/opioid-orl1-camp-fast-0360c; https://euroscreenfast.com/assays/opioid-op1-delta-camp-fast-0379c). […]

[2] = molecular target: T1, δ (DOP, OPRD2) opioid receptor; test: DOP opioid receptor functional antagonism in NG-10815 cells; assay type: cell-based, rat; details: Between 10^−9-10^−6 M, percent inhibition of control specific agonist response
Method: as §1
The respective reference, non-peptide small molecules were tested concurrently with the TAPS analogs; Agonist compounds DPDPE ([D-Pen2,D-Pen5]enkephalin), selective agonist of DOP receptor at 2 × 10^−9 M and DAMGO ([D-Ala2, N-MePhe4, Gly-ol] enkephalin), high MOP specificity at 2.5 × 10^−9 M; Antagonist compounds: naltrindole 7-(cyclopropylmethyl)-6,7-dehydro-4,5α-epoxy-3,14-dihydroxy-6,7-2′,3′-indolomorphinan hydrochloride, selective DOP antagonist, 5 × 10^−10 M and CTOP (D-Phe-Cys-Tyr-D-Trp-Orn-Thr-Pen-Thr-NH2), MOP antagonist at 3.4 × 10^−7 M. Depending on the assay volume and solvent tolerance, the stock solutions were diluted to [100×], [333×] or [1,000×] in 100% DMEM solvent, then either added directly or further diluted to [10×] or [5×] in H2O or Hank's balanced salt solution (HBSS) before addition to the assay well (final solvent concentration kept constant). The cultures were incubated for 10 min at 37°C followed by impedance measurements using cellular dielectric spectroscopy of CHO cells and cAMP was assayed by homogeneous time resolved fluorescence (HTRF) method using NG-10815 cells, according to CEREP standard assay protocols (https://euroscreenfast.com/assays/opioid-orl1-camp-fast-0360c; https://euroscreenfast.com/assays/opioid-op1-delta-camp-fast-0379c). The results (mean of three experiments) are expressed as a percent of control specific agonist response [(measured TAPS specific response/control specific agonist response) × 100] and as a percent inhibition of control specific agonist response [100 – (measured TAPS specific response/control specific agonist response) × 100] obtained in the presence of the TAPS compounds. Results showing a stimulation or an inhibition lower than 25% were considered not significant and mostly attributable to variability of the signal around the control level. Results showing a stimulation or an inhibition higher than 50% were considered to represent significant effects of the TAPS compounds.

[3] = test system: mice; test: Mouse tail flick test (analgesia); assay type: in vivo
Method: Following the preliminary results showing the in vitro agonist effect of TAPS c(2-6) in activating the μ-opioid receptor, the activity of TAPS c(2-6) in inducing analgesia in vivo was studied utilizing the mouse tail flick model. In this model, the mouse is exposed to local pain induced by an infrared light beam at the tail of the animal, and the time it takes for the animal to react to the pain, i.e., flick its tail, termed the “Latency time to tail flick,” is recorded. The treatment groups received either 5 or 15 mg/kg of TAPS c(2-6) dissolved in PBS. These were compared to animals receiving morphine (5 mg/kg) as a positive control or vehicle (PBS) as a negative control (Figure 9).
For the assessment of analgesia induced by TAPS c(2-6), the mouse tail-flick model was used. […] Animals were placed upon the TF instrument surface (Ugo Basile S.R.L) and held in place. The tail was placed straight back over an infrared light source. The heat source and timer were turned on and automatically switched off when the mouse flicked its tail away from the heat source. The time it took for the animal to flick its tail was measured and results were recorded as latency time to TF. […] Prior to TF measurement, assessment of possible locomotor side-effects via the Open-Field model was performed, as will be described in the next section TAPS c(2-6) Adverse Effect Assessment- the Open-Field Test.

T1 sequence (P32300 whole entry): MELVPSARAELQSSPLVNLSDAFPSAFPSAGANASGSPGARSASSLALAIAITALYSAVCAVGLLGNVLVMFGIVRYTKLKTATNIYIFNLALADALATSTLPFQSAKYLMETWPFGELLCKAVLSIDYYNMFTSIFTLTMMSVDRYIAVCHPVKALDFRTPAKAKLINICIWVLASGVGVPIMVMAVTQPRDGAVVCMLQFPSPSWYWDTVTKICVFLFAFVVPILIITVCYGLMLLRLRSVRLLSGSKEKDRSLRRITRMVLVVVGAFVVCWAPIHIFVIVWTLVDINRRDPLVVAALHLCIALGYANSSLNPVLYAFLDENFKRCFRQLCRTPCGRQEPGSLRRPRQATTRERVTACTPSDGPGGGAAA

Structure (SMILES): N=C(N)NCCC[C@@H]1C(=O)N[C@@H](Cc2ccccc2)C(=O)N(CC(N)=O)CCNC(=O)NCCCCCCN1C(=O)[C@@H](N)Cc1ccc(O)cc1 [TAPS c(2-6)]
- DOP agonist (%) [1]: 11%
- DOP antagonist (%) [2]: 6%
- analgesia (latency time to tail flick) ([3]; 5 mg/kg IP, compared to PBS): induced analgesia
- analgesia (latency time to tail flick) ([3]; 15 mg/kg IP, compared to morphine 5 mg/kg): comparative in strength and duration to that induced by morphine
- duration of analgesia ([3]; higher dosage 15 mg/kg IP): at least 5 h
